Test results: patent publication US8642640B2, “1-phenylpyrrole derivatives” (Exelixis, Inc., priority 2008, dated 2014)

Legend:
[1] = molecular target: T1, human mineralocorticoid receptor (hMR) (Homo sapiens, UniProt P08235); assay: GAL4-hMR-LBD luciferase reporter assay in HEK293 cells with 1 nM aldosterone (Test Example 1); type: cell-based; conditions: for Emax: HEK293, read-out: Imax; for IC50: concentration showing Imax/2, HEK293, GAL4-hMR-LBD, 1 nM aldosterone, overnight, read-out: ICmax50;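 for Imax: 0% is DMSO-only control and 100% is 1 nM aldosterone alone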
T1 construct: expressed in transfected cells; host or cells: HEK293
T1 sequence (P08235 726-964 limits assumed): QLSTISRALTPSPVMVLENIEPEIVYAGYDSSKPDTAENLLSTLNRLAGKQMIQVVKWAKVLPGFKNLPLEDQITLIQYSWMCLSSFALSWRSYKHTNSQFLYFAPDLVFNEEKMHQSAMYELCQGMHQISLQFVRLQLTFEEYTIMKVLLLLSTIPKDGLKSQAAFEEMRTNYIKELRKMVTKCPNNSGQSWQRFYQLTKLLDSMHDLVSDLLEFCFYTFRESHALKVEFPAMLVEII
Procedure: A plasmid pM-hMR-LBD expressing GAL4-hMR receptor, which has a ligand binding domain (LBD, corresponding to approximately 308 amino acids at the carboxy terminus) of human mineralocorticoid receptor (hMR, NM_000901) bonded to a DNA binding domain of yeast transcription factor GAL4 (corresponding to 147 amino acids at the amino terminus), was prepared. Reporter assay was conducted by using a reporter plasmid (such as plasmid pFR-Luc of […] CLONING SYSTEMS) including a luciferase gene, having a sequence (UAS sequence) which binds to the DNA binding domain of GAL4.
The plasmid pM-hMR-LBD and the reporter plasmid as obtained above were gene transferred into renal cell line HEK293 of human fetus by lipofection. On the next day, cells were collected by trypsin treatment, and dispensed with DMEM culture medium containing 5% of FBS treated by activated charcoal, to a white 96-well plate (Costar) with the amount of 95 microliter per well.
The test compounds were used as dissolved in dimethyl sulfoxide at a predetermined concentration, and the test compounds suitably diluted with culture media were added to the cells on the white 96-well plate so that the final concentration becomes 0.1%. […] After the addition, cultivation was carried out overnight.
On the next day, the culture media was removed, and then luciferase substrate (Wako Pure Chemical Industries, Ltd.) was prepared in accordance with the attached document and were added to each well by 50 microliters. Stirring was conducted for approximately 30 minutes, and the amount of luminescence was measured for each well by using Analyst (Molecular Devices), to obtain luciferase activity. A graph which plots relative luciferase activity values, when the luciferase activity value of Control group 1 was taken as 0% and the luciferase activity value of Control group 2 was taken as 100%, for each of the amount of the test compound addition group was made.

[2] = Plasma concentration after intragastric administration to cynomolgus monkey (Test Example 2); type: in vivo; conditions: for AUC, area under the plasma concentration versus time curve / Cmax: male cynomolgus monkey, 3 mg/kg intragastric in 0.5% MC, LC-MS/MS, plasma; for AUC, area under the plasma concentration versus time curve: noncompartment model; for Cmax: po, read-out: Cmax, maximum concentration
Procedure: Cynomolgus monkey (male) was used, and it was fasted from the day before administration of the test compound.
Administration samples were prepared by adding a 0.5% MC (methyl cellulose) solution to the Test Compound, so that the dose becomes 3 mg/2 mL/kg. Each of the administration samples was administered intragastrically to the cynomolgus monkey by using a tube. After the samples were administered, approximately 5 mL of 0.5% MC was administered. For each of the administration samples, a group of two cynomolgus monkeys was administered.
With respect to collection of blood, it was conducted by collecting approximately 0.5 mL of blood from crotch vein using a glass syringe treated with heparin, before administration, and 30 minutes, 1, 2, 4, 6, 8, 24 and 48 hours after administration. Blood was centrifuged (1,700×g, 15 min, 4° C.) to obtain plasma. Plasma was stored in a freezer (−20° C.) until pretreatment.
Preparation of standard solution and internal standard (IS) solution: Each of the Test Compounds was dissolved in DMSO (dimethyl sulfoxide) to prepare a solution of 10 mM each. Each of the compound solution was diluted with acetonitrile, and thus standard solution was prepared. Further, niflumic acid (Wako Pure Chemical Industries, Ltd.) was dissolved in DMSO at the concentration of 2 mM, followed by dilution with acetonitrile to prepare an IS solution of 2 μM.
Pretreatment of plasma samples: 20 μL of plasma sample was collected, and then 25 μL of purified water, 100 μL of acetonitrile, and 100 μL of methanol was added. For the preparation of a calibration curve, 25 μL of purified water, 20 μL of each of the standard solutions (acetonitrile solution), 80 μL of acetonitrile, and 100 μL of methanol were added to 20 μL of blank plasma. 40 μL of the acetonitrile solution of IS was added to all of the samples, and then the samples were stirred, filtered by suction using Captiva filter plate (Varian, Inc.), and then the filtrate was used as the sample for LC-MS/MS analysis.
Quantitative Determination of Test Compound: Concentration in plasma was analyzed by LC-MS/MS method for each Test Compound.
Analysis: Pharmacokinetic parameter was calculated from concentration of each of the drugs in plasma, by using WinNonlin Professional (Ver. 4.0.1, Pharsight Corporation). Here, Noncompartment model was used as the model for parameter calculation.

With `Cc1cc(C(=O)Nc2ccc(S(C)(=O)=O)cc2)c(C)n1-c1ccc(F)cc1C(F)(F)F` [Reference compound B, 1-[4-fluoro-2-(trifluoromethyl)phenyl]-2,5-dimethyl-N-[4-(methylsulfonyl)phenyl]-1H-pyrrole-3-carboxamide, reference compound] the Emax [1] was 93%, the IC50 [1] was 12 nM and the “AUC, area under the plasma concentration versus time curve” value [2] was 170 ng·h/mL. It also gave a Cmax [2] of 10 ng/mL.

In the case of `Cc1c(C(=O)Nc2ccc(S(C)(=O)=O)cc2)cc(C[C@H](C)O)n1-c1ccc(Cl)cc1C(F)(F)F` (single isomer, unassigned) [Example 6 - isomer A], the Emax [1] is reported as 79%, the IC50 [1] is reported as 3.1 nM and the “AUC, area under the plasma concentration versus time curve” value [2] is reported as 30280 ng·h/mL. It also gave a Cmax [2] of 1730 ng/mL.

In the case of `Cc1c(C(=O)Nc2ccc(S(C)(=O)=O)cc2)cc(CCF)n1-c1ccc(F)cc1OC(F)F` (single isomer, unassigned) [Example 54 - isomer A, 1-[2-(Difluoromethoxy)-4-fluorophenyl]-5-(2-fluoroethyl)-2-methyl-N-[4-(methylsulfonyl)phenyl]-1H-pyrrole-3-carboxamide], the Emax [1] is reported as 99%, the IC50 [1] is reported as 6.5 nM and the “AUC, area under the plasma concentration versus time curve” value [2] is reported as 11410 ng·h/mL. The Cmax [2] was 970 ng/mL.

For `Cc1c(C(=O)Nc2ccc(S(C)(=O)=O)cc2)cc(C[C@H](C)O)n1-c1ccc(Cl)cc1OC(F)(F)F` (single isomer, unassigned) [Example 42 - isomer B], the Emax [1] was 95%, the IC50 [1] was 2.7 nM and the “AUC, area under the plasma concentration versus time curve” value [2] was 23860 ng·h/mL. It also gave a Cmax [2] of 1660 ng/mL.

For `Cc1c(C(=O)Nc2ccc(S(C)(=O)=O)cc2)cc(CCO)n1-c1ccc(F)cc1C(F)(F)F` [Example 62, 1-[4-Fluoro-2-(trifluoromethyl)phenyl]-5-(2-hydroxyethyl)-2-methyl-N-[4-(methylsulfonyl)phenyl]-1H-pyrrole-3-carboxamide], the “AUC, area under the plasma concentration versus time curve” value [2] was 8060 ng·h/mL, the Cmax [2] was 660 ng/mL and the “concentration in plasma compared with Reference compound A and Reference compound B” value ([2]; summary of Table 16, cynomolgus monkey, 3 mg/kg) was “considerably improved concentration in plasma”.

In the case of `Cc1c(C(=O)Nc2ccc(S(C)(=O)=O)cc2)cc(C[C@H](C)O)n1-c1ccc(F)cc1OC(F)(F)F` (single isomer, unassigned) [Example 16 - isomer A], the Emax [1] is reported as 101%, the IC50 [1] is reported as 3.6 nM and the “AUC, area under the plasma concentration versus time curve” value [2] is reported as 13490 ng·h/mL. The Cmax [2] was 1000 ng/mL.

In the case of `Cc1cc(Cl)ccc1-n1c(CCF)cc(C(=O)Nc2ccc(S(C)(=O)=O)cc2)c1C` (single isomer, unassigned) [Example 51 - isomer A, 1-(4-Chloro-2-methylphenyl)-5-(2-fluoroethyl)-2-methyl-N-[4-(methylsulfonyl)phenyl]-1H-pyrrole-3-carboxamide], the Emax [1] is reported as 124%, the IC50 [1] is reported as 11 nM and the “AUC, area under the plasma concentration versus time curve” value [2] is reported as 10940 ng·h/mL. The Cmax [2] was 830 ng/mL.

In the case of `Cc1c(C(=O)Nc2ccc(S(C)(=O)=O)cc2)cc(C[C@H](C)O)n1-c1ccc(F)cc1OC(F)F` (single isomer, unassigned) [Example 9 - isomer A], the Emax [1] is reported as 84%, the IC50 [1] is reported as 18 nM and the “AUC, area under the plasma concentration versus time curve” value [2] is reported as 23950 ng·h/mL. The Cmax [2] was 2350 ng/mL.

In the case of `Cc1c(C(=O)Nc2ccc(S(C)(=O)=O)cc2)cc(C[C@H](C)O)n1-c1ccc(Cl)cc1Cl` (single isomer, unassigned) [Example 43 - isomer A], the Emax [1] is reported as 123%, the IC50 [1] is reported as 5.5 nM and the “AUC, area under the plasma concentration versus time curve” value [2] is reported as 14820 ng·h/mL. It also gave a Cmax [2] of 1140 ng/mL.

With `Cc1cc(C(=O)Nc2ccc(S(C)(=O)=O)cc2)c(C)n1-c1ccccc1C(F)(F)F` [Reference compound A, 1-[2-(trifluoromethyl)phenyl]-2,5-dimethyl-N-[4-(methylsulfonyl)phenyl]-1H-pyrrole-3-carboxamide, reference compound] the Emax [1] was 114%, the IC50 [1] was 14 nM and the “AUC, area under the plasma concentration versus time curve” value [2] was 30 ng·h/mL. The Cmax [2] was under 10 ng/mL.

With `CCc1c(C(=O)Nc2ccc(S(C)(=O)=O)cc2)cc(C[C@H](C)O)n1-c1ccc(F)cc1Cl` (single isomer, unassigned) [Example 44 - isomer B] the Emax [1] was 98%, the IC50 [1] was 12 nM and the “AUC, area under the plasma concentration versus time curve” value [2] was 16920 ng·h/mL. For the same molecule, the Cmax [2] was 940 ng/mL.

For `Cc1c(C(=O)Nc2ccc(S(C)(=O)=O)cc2)cc(C[C@H](C)O)n1-c1ccc(F)cc1Cl` (single isomer, unassigned) [Example 40 - isomer A], the Emax [1] was 91%, the IC50 [1] was 9.6 nM and the “AUC, area under the plasma concentration versus time curve” value [2] was 15110 ng·h/mL. For the same molecule, the Cmax [2] was 1300 ng/mL.

For `Cc1c(C(=O)Nc2ccc(S(C)(=O)=O)cc2)cc(C[C@H](C)O)n1-c1ccc(F)cc1C(F)(F)F` (single isomer, unassigned) [Example 5 - isomer A], the Emax [1] was 119%, the IC50 [1] was 3.4 nM and the “AUC, area under the plasma concentration versus time curve” value [2] was 31310 ng·h/mL. The Cmax [2] was 1600 ng/mL.

For `Cc1c(C(=O)Nc2ccc(S(C)(=O)=O)cc2)cc(C[C@H](C)O)n1-c1ccc(Cl)cc1OC(F)F` (single isomer, unassigned) [Example 11 - isomer A], the Emax [1] was 89%, the IC50 [1] was 7.3 nM and the “AUC, area under the plasma concentration versus time curve” value [2] was 24810 ng·h/mL. It also gave a Cmax [2] of 1600 ng/mL.

In the case of `Cc1c(C(=O)Nc2ccc(S(C)(=O)=O)cc2)cc(CCO)n1-c1ccc(Cl)cc1C(F)(F)F` (single isomer, unassigned) [Example 1 - isomer A, 1-[4-Chloro-2-(trifluoromethyl)phenyl]-5-(2-hydroxyethyl)-2-methyl-N-[4-(methylsulfonyl)phenyl]-1H-pyrrole-3-carboxamide], the Emax [1] is reported as 87%, the IC50 [1] is reported as 3.7 nM and the “AUC, area under the plasma concentration versus time curve” value [2] is reported as 14110 ng·h/mL. For the same molecule, the Cmax [2] was 990 ng/mL.
